In one data set the test system is Raji. The experiment in a line: Cytotoxicity against human Raji cells assessed as inhibition of cell proliferation after 3 days by coulter counter analysis. Type of data set: functional, cell-based. Particulars: 72 h.
Data set [1] can be described thus: Cytotoxicity against human […] cells assessed as inhibition of cell proliferation after 3 days by coulter counter analysis. It is filed as functional, cell-based. Particulars: 72 h.
The next data set deals with DU-145. The experiment in a line: Cytotoxicity against human DU145 cells assessed as inhibition of cell proliferation after 24 hrs by MTT assay. Type of data set: functional, cell-based. To be noted: DU-145, 24 h.
The subject of another data set is Serum. The data set is described as follows: Ratio of AUC in CSF to AUC in serum of Sprague-Dawley rat at 2.5 mg/kg, iv. Type of data set: ADME, organism-based. The arrangement: dose 2.5 mg/kg, route intravenous.
The nature of data set [2]: AUC in Sprague-Dawley rat CSF at 2.5 mg/kg, iv administered as single dose by CE-UV analysis. Type of data set: ADME, organism-based. Details: dose 2.5 mg/kg, route intravenous. To be noted: cerebrospinal fluid.
Data set [3] is described as follows: AUC in Sprague-Dawley rat serum at 2.5 mg/kg, iv administered as single dose by CE-UV analysis. It is filed as ADME, organism-based. Details: dose 2.5 mg/kg, route intravenous.

The text below walks through data of ChEMBL document CHEMBL3132803 (Medchemcomm, 2013).

pIC50: −log10 of the molar value. Bounds are passed on as bounds.

In the case of `CNC(=O)N[C@H]1[C@@H]2NC(=O)c3ccc(Br)n3[C@@H]2C[C@H]1O`, the pIC50 (with Raji; in data set [1]) was below 5.00 in each case.

Regarding `CN1C(=O)N[C@@H]2[C@H]3NC(=O)c4ccc(Br)n4[C@H]3C[C@@]21O`, the negative logarithm of the IC50 (pIC50) in the data set with DU-145 is below 5.00.

As for `O=C1N[C@H]2[C@@H]3NC(=O)c4cccn4[C@@H]3C[C@H]2O1`, the pIC50 (with Raji; in data set [1]) was below 5.00 throughout.

Take `CNC(=O)N[C@H]1[C@@H]2NC(=O)c3cccn3[C@@H]2C[C@H]1O`: the negative-log IC50 (pIC50) (with Raji; in data set [1]) was below 5.00 throughout.

`CN1C(=O)N[C@H]2[C@@H]3NC(=O)c4cccn4[C@@H]3C[C@]21O`: the negative logarithm of the IC50 (pIC50) with Raji is 5.50; with DU-145 it was below 5.00; in data set [1] it was 5.52.

Take `CCN1C(=O)N[C@H]2[C@@H]3NC(=O)c4cccn4[C@@H]3C[C@]21O`: the pIC50 in the data set on DU-145 is below 5.00.

As to `CN1C(=O)N[C@H]2[C@@H]3NC(=O)c4ccc(Cl)n4[C@@H]3C[C@]21O`, the “Ratio AUC” value with Serum was found to be 16%. Besides, the pIC50 in the data set with Raji is 6.74; in the data set on DU-145 it was 5.92; in data set [1] it was 7.10. In addition, the results for the AUC in data set [2] and in data set [3] were 3.75 µM·h and 22.8 µM·h, respectively.

With `CCN1C(=O)N[C@H]2[C@@H]3NC(=O)c4ccc(Cl)n4[C@@H]3C[C@]21O`, the “Ratio AUC” value with Serum was 27%. Further, the values for the pIC50 (with Raji; with DU-145; in data set [1]) were 6.52, 5.59 and 6.55, respectively. Further, the AUC in data set [2] amounted to 10.1 µM·h; in data set [3] it was 37.5 µM·h.

Consider `CCN1C(=O)N[C@H]2[C@@H]3NC(=O)c4cc(Cl)c(Cl)n4[C@@H]3C[C@]21O`, for which, in the data set with Serum, the “Ratio AUC” value turned out to be 30.7%. Further, the figures for the pIC50 (in the data set with Raji; in the data set on DU-145; in data set [1]) were 6.21, 5.85 and 6.36, respectively. The figures for the area under the curve (AUC) in data set [2] and in data set [3] were 7.6 µM·h and 24.8 µM·h, respectively.

Consider `CCN1C(=O)N[C@H]2[C@@H]3NC(=O)c4ccc(Br)n4[C@@H]3C[C@]21O`, for which the negative logarithm of the IC50 (pIC50) in the data set with DU-145 is below 5.00.

For the compound `COc1ccc(CN2C(=O)N[C@H]3[C@@H]4NC(=O)c5ccc(Br)n5[C@@H]4C[C@]32O)cc1`, in the data set with DU-145, the negative logarithm of the IC50 (pIC50) was below 5.00.

On to `CN1C(=O)N[C@H]2[C@@H]3NC(=O)c4ccc(C5CC5)n4[C@@H]3C[C@]21O`, for which the negative logarithm of the IC50 (pIC50) with Raji is 6.40; in the data set on DU-145, 5.30; in data set [1] it was 6.00.

In the case of `CN1C(=O)N[C@H]2[C@@H]3NC(=O)c4ccc(-c5ccccc5)n4[C@@H]3C[C@]21O`, the pIC50 in the data set with Raji was 5.42; in the data set on DU-145, 5.22; in data set [1], 5.82.

In the case of `CN1C(=O)N[C@H]2[C@@H]3NC(=O)c4ccc(-c5ccc(N)cc5)n4[C@@H]3C[C@]21O`, in the data set with DU-145, the pIC50 is below 5.00.

Turning to `CN1C(=O)N[C@H]2[C@@H]3NC(=O)c4ccc(Br)n4[C@@H]3C[C@]21O` [AGELASTATIN A], the results for the pIC50 (in the data set on Raji; in the data set on DU-145; in data set [1]) were 6.85, 5.64 and 5.55, respectively. Also, the AUC turned out to be 3.41 µM·h in data set [2] and 53.2 µM·h in data set [3].
